Results reported in US5830920A, “Sulfuric acid esters of sugar alcohols” (Hoffmann-La Roche Inc., priority 1995, dated 1998).

Tests used:
[1] = system: rat smooth muscle cells; test: Antiproliferative activity in cell cultures (rat smooth muscle cells), relative to heparin; format: cell-based; details: 100 μg/ml, 48 h, heparin at same concentration = reference
Description: The antiproliferative activity of a substance is expressed as the ri value which is a comparative value to the corresponding activity of heparin and which was determined in cell cultures as follows: rat smooth muscle cells were applied to cell culture plates in a density of 8×10^3 cells/well, medium: DMEM (Dulbecco Modified Eagle Medium) with 10% FCS (fetal calf serum); cultivation at 37° C. and 5% CO2. After 4 hours, the number of adhered cells was determined and the substances to be tested (100 μg/ml, dissolved in H2 O) were added. […] Subsequently,the cells were incubated for 48 h. and thereafter the cell count was determined once more.
The inhibition i of the cell growth, that is, the reduction in the growth rate of the cells in per cent compared to the control, was calculated from these values. [formula] with the growth rate μ being calculated as [formula] in which Z is the number of cells and d is the time in days.
Finally, ri --the relative inhibitory activity--which expresses the activity of a substance (at 100 μg/ml) in comparison to the activity of heparin in the same concentration in the same experiment, was calculated [formula] Blood coagulation inhibition

[2] = target: T1, thrombin (Bos taurus, UniProt P00735); test: Inhibition of thrombin in the chromogenic substrate assay; format: biochemical; details: plasma, antithrombin III, substrate S-2238, 37° C., pH 8.4
T1 construct: purchased Roche Basle
Description: (§1) The blood coagulation-inhibiting activity was determined as follows:
(§2) The buffer solution used consisted of 50 mM Tris buffer, 180 mM NaCl, 7.5 mM EDTA Na2, 1% PEG 6000 and 0.02% Tween 80, pH 8.4. The assay solution consisted of 50 μl of buffer, 30 μl of antithombin III (1 U/ml, Kabi Diagnostica) and 20 μl of plasma which contained various concentrations of test compounds. 30 μl of sample solution and 20 μl of water with 180 μl of thrombin (1 U/ml, thrombin reagent, Roche Basle) were added to the test cuvette in the automatic analyzer.

[3] = target: factor Xa (Bos taurus, UniProt P00743); test: Inhibition of factor Xa in the chromogenic substrate assay; format: biochemical; details: plasma, antithrombin III, substrate S-2222, 37° C., pH 8.4
Description: [Worded in the source for another target; used here, by the source, with some conditions changed.] as §1, §2

[4] = system: neointima in rat carotids; test: In vivo assay for antiproliferative activity in damaged rat carotids (neointima after balloonisation); design: species or system rat (male Wistar Kyoto); details: 0.3 mg/kg/h i.v.
Description: In vivo assay for determining the antiproliferative activity of the compounds in accordance with the invention in damaged rat carotids.
The left carotids of male Wistar Kyoto rats (300-400 g) were, after narcosis, damaged with a 2F embolectomy catheter by pulling the catheter in the pumped-up state through the vessel three times. After wound management, the animals were kept in pairs with standard feed and water ad libidum.
The compounds were administered in concentrations of 0.3-1 mg/kg/h i.v. For this purpose, an osmotic minipump was implanted under the dorsal skin of the animals during the narcosis and was connected with the jugular vein. Thus, the compounds could be administered constantly during the entire test period of 14 days.
After 14 days, proliferative tissue (neointima) had formed, the size of which could be determined morphometrically on histological cross-sections.In order to do this, the rats were sacrificed and perfusion-fixed with glutaraldehyde.

Chain of factor Xa (P00743 234-492 limits assumed): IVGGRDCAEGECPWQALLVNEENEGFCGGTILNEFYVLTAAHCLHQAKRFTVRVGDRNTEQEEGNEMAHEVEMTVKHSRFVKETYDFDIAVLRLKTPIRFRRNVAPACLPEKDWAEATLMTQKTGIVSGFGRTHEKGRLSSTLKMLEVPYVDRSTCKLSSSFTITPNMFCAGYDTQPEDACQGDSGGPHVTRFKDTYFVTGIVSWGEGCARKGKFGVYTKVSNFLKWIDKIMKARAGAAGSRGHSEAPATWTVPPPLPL
Chain of factor Xa (P00743 41-180 limits assumed): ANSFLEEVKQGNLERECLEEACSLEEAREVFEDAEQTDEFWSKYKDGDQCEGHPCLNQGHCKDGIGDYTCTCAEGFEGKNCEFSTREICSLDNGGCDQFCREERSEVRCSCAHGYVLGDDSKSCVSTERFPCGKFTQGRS

Anticoagulant Activity IC50 Thrombin [2]	Anticoagulant Activity IC50 Factor Xa [3]	Substance	Antiproliferative Activity ri (relative inhibitory activity compared to heparin) [1]	effect on neointima compared to concentrated heparin ([4]; 14 days, comparison with heparin)	cross sectional area of the neointima in rat carotids 14 days after balloonisation ([4]; osmotic minipump)
1.9 µg/mL	2.7 µg/mL	Heparin [reference compound]	1.0		
> 1000 µg/mL	> 1000 µg/mL	1,6-bis-O-[4-[4-O-[4-[(E)-2-[methyl-(2,3,4,5,6-penta-O-sulfo-D-glucit-1-yl)-carbamoyl]-vinyl]-phenyl]-2,3-di-O-sulfo-D-threit-1-yloxy]-phenyl]-2,3,4,5-tetra-O-sulfo-galactitol octadecasodium salt [Example 52]	0.8		
> 1000 µg/mL	> 1000 µg/mL	1,6-bis-O-[4-[4-O-[4-[(E)-2-(2,3,4,5,6-penta-O-sulfo-D-glucit-1-ylcarbamoyl)-vinyl]-phenyl]-2,3-di-O-sulfo-D-threit-1-yloxy]-phenyl]-2,3,4,5-tetra-O- sulfo-galactitol octadecasodium salt [Example 48]	2.7		
> 1000 µg/mL	> 1000 µg/mL	1,6-Bis-O-[4-[2-(2,3,4,5,6-penta-O-sulfo-D-glucit-1-ylcarbamoyl)-ethyl]-phenyl]-2,3,4,5-tetra-O-sulfo-galactitol tetradecasodium salt [Example 6]	0.7	comparable effect to that of concentrated heparin	significantly reduced (p<0.01, t-test)
> 1000 µg/mL	> 1000 µg/mL	1,6-Bis-O-[6-(2,3,4,5,6-penta-O-sulfo-D-glucit-1-ylcarbamoyl)-naphthalen-2- yl]-2,3,4,5-tetra-O-sulfo-galactitol tetradecasodium salt [Example 16]	2.1		
> 1000 µg/mL	> 1000 µg/mL	1,6-bis-O-[3-[benzyl 2,6-didesoxy-6-(2,3,4,5,6-penta-O-sulfo-D-gluconoylamino)-3,4-di-O-sulfo-a-D-glucopyranosid-2-ylcarbamoyl]-naphthalen-1-yl]-2,3,4,5-tetra-O-sulfo-galactitol octadecasodium salt [Example 56]	1.7		

Second part, the substance before the results:

Substance	Anticoagulant Activity IC50 Thrombin [2]	Anticoagulant Activity IC50 Factor Xa [3]	Antiproliferative Activity ri (relative inhibitory activity compared to heparin) [1]	effect on neointima compared to concentrated heparin ([4]; 14 days, comparison with heparin)	cross sectional area of the neointima in rat carotids 14 days after balloonisation ([4]; osmotic minipump)
1,6-bis-O-[3-(2,3,4,5-tetra-O-sulfo-D-arabinit-1-yloxy)-naphthalen-2-yl]-2,3,4,5-tetra-O-sulfo-galactitol dodecasodium salt [Example 40]	> 1000 µg/mL	> 1000 µg/mL	1.4		
1,6-bis-O-[4-[2-[benzyl-2,6-didesoxy-6-(2,3,4,5,6-penta-O-sulfo-D-gluconoylamino)-3,4-di-O-sulfo-a-D-glucopyranosid-2-ylcarbamoyl]-ethyl]-phenyl]-2,3,4,5-tetra-O-sulfo-galactitol octadecasodium salt [Example 58]	> 1000 µg/mL	> 1000 µg/mL	1.8		
1,6-bis-O-[6-[(S)-2,3-bis-sulfooxy-propoxy]-3-(2,3,4,5,6-penta-O-sulfo-D-glucit 1-ylcarbamoyl)-naphthalen-2-yl]-2,3,4,5-tetra-O-sulfo-galactitol octadecasodium salt [Example 22]	> 1000 µg/mL	> 1000 µg/mL	2.1		
1,6-bis-O-[4-[(E)-2-[benzyl 2,6-didesoxy-2-[4-(2,3,4,5,6-penta-O-sulfo-D-glucit-1-ylamino)-3-nitro-benzoyl-amino]-3,4-di-O-sulfo-a-D-glucopyranosid-6-ylcarbamoyl]-vinyl]-phenyl]-2,3,4,5-tetra-O-sulfo-galactitol octadecasodium salt [Example 61]	> 1000 µg/mL	> 1000 µg/mL	2.4		
1,6-bis-O-[3-(2,3,4,5,6-penta-O-sulfo-D-glucit-1-ylcarbamoyl)-naphthalen-2-yl]-2,3,4,5-tetra-O-sulfo-galactitol tetradecasodium salt [Example 14]	> 1000 µg/mL	> 1000 µg/mL	1.5		
2,3,4,5-tetra-O-sulfo-1,6-bis-O-[4-[4-(2,3,4,5-tetra-O-sulfo-D-arabinit-1- yloxy)-benzyl]-phenyl]-D-mannitol dodecasodium salt [Example 43]	> 1000 µg/mL	> 1000 µg/mL	1.3		
1,6-didesoxy-2,3,4,5-tetra-O-sulfo-1,6-bis-[3-(2,3,4,5-tetra-O-sulfo-D-arabinit-1-yloxy)-naphthalen-2-ylcarbonylamino]-galactitol dodecasodium salt [Example 45]	> 1000 µg/mL	> 1000 µg/mL	1.4		
1,6-bis-O-[3-biphenyl-4-ylmethoxy-5-(2,3,4,5,6-penta-O-sulfo-D-glucit-1-ylcarbamoyl)-phenyl]-2,3,4,5-tetra-O-sulfo-galactitol tetradecasodium salt [Example 17]	> 1000 µg/mL	> 1000 µg/mL	1.5		
1,6-bis-O-[4-[2-[4-(2,3,4,5,6-penta-O-sulfo-D-glucit-1-ylcarbamoyl)-phenyl]-ethyl]-phenyl]-2,3,4,5-tetra-O-sulfo-galactitol tetradecasodium salt [Example 11]	> 1000 µg/mL	> 1000 µg/mL	2.2		
1,6-bis-O-[6-[benzyl 2,6-didesoxy-2-[3-nitro-4-(2,3,4,5,6-penta-O-sulfo-D-glucit-1-ylamino)-benzoylamino]-3,4-di-O-sulfo-a-D-glucopyranosid-6-ylcarbamoyl]-naphthalen-2-yl]-2,3,4,5-tetra-O-sulfo-galactitol octadecasodium salt [Example 59]	> 1000 µg/mL	> 1000 µg/mL	1.8		
